Reference: ChEMBL document CHEMBL1201862, “PubChem BioAssay data set” (2004)
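Each compound was tested at five concentrations against cells in 96-well plates for 48 hours. GI50 is the concentration that inhibits growth by half.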 Active and inactive are the calls of the source. Rule as the data show it: active = GI50 up to about 1.1 µM and inactive = higher.

Experiments:
Experiment in all cases: inhibition of tumour cell growth, NCI panel, 48 h
HT-29 = system: HT-29
OVCAR-8 = system: OVCAR-8
SNB-19 = system: SNB-19
SK-MEL-5 = system: SK-MEL-5
786-0 = system: 786-0
CCRF-CEM = system: CCRF-CEM
UACC-62 = system: UACC-62
Malme-3M = system: Malme-3M
PC-3 = system: PC-3
NCI-H522 = system: NCI-H522
SK-OV-3 = system: SK-OV-3
OVCAR-4 = system: OVCAR-4
U-251 = system: U-251
SN12C = system: SN12C
HL-60 = system: HL-60
NCI-H460 = system: NCI-H460
SK-MEL-28 = system: SK-MEL-28
MDA-N = system: MDA-N
MCF7 = system: MCF7
Hs-578T = system: Hs-578T

Measured: GI50

CCOC(=O)CCC(NC(=O)c1ccc(/N=C/c2nc3cc(C(F)(F)F)ccc3nc2-c2ccccc2)cc1)C(=O)OCC (stereo unspecified)
inactive: HT-29 > 50 µM | OVCAR-8 7.33 µM | SNB-19 10.6 µM | SK-MEL-5 25.1 µM | 786-0 7.38 µM | CCRF-CEM > 50 µM | UACC-62 12.2 µM | Malme-3M 6.4 µM | PC-3 > 50 µM | NCI-H522 12.3 µM | SK-OV-3 8.77 µM | OVCAR-4 11.5 µM | U-251 6.07 µM | SN12C > 50 µM | HL-60 8.91 µM | NCI-H460 24 µM | SK-MEL-28 > 50 µM

NC(=O)c1ccc(Cl)c([N+](=O)[O-])c1
inactive: HT-29 > 100 µM | OVCAR-8 > 100 µM | SNB-19 > 100 µM | SK-MEL-5 > 100 µM | 786-0 > 100 µM | CCRF-CEM > 100 µM | UACC-62 > 100 µM | Malme-3M > 100 µM | NCI-H522 48.9 µM | SK-OV-3 > 100 µM | OVCAR-4 > 100 µM | U-251 > 100 µM | SN12C > 100 µM | HL-60 > 100 µM | NCI-H460 > 100 µM | SK-MEL-28 > 100 µM

COC(=O)c1cc(NC(=O)c2cc(NC(=O)c3cc([N+](=O)[O-])cn3C)cn2C)cn1C
inactive: MDA-N > 100 µM | HT-29 > 100 µM | OVCAR-8 > 100 µM | SNB-19 59.6 µM | SK-MEL-5 10.2 µM | MCF7 > 100 µM | 786-0 > 100 µM | CCRF-CEM > 100 µM | UACC-62 55.6 µM | Malme-3M 26.9 µM | PC-3 94.2 µM | SK-OV-3 49.4 µM | OVCAR-4 40 µM | U-251 36.8 µM | SN12C > 100 µM | HL-60 86.5 µM | NCI-H460 40.3 µM | SK-MEL-28 > 100 µM

CCOC(=O)C12OC(OCC)(CC1(OCC)OCC)C1(CC1)C2=O (stereo unspecified)
inactive: MDA-N > 100 µM | HT-29 > 100 µM | OVCAR-8 > 100 µM | SNB-19 > 100 µM | SK-MEL-5 > 100 µM | MCF7 > 100 µM | 786-0 > 100 µM | CCRF-CEM > 100 µM | Malme-3M > 100 µM | PC-3 > 100 µM | SK-OV-3 > 100 µM | OVCAR-4 > 100 µM | U-251 > 100 µM | SN12C > 100 µM | NCI-H460 > 100 µM | SK-MEL-28 > 100 µM

COc1ccc2c(c1)OCC1Cc3cc4c(cc3OC21)OCO4 (stereo unspecified)
inactive: MDA-N 3.14 µM | HT-29 35.1 µM | OVCAR-8 45 µM | SNB-19 > 100 µM | SK-MEL-5 16.8 µM | MCF7 46.8 µM | 786-0 34.8 µM | CCRF-CEM 51.1 µM | UACC-62 31.3 µM | Malme-3M 54.1 µM | PC-3 41.6 µM | NCI-H522 49.2 µM | SK-OV-3 37.2 µM | U-251 42.6 µM | SN12C 28.4 µM

CCOC(=O)c1cc(-c2cc(OC)c(OC)c([N+](=O)[O-])c2)c([N+](=O)[O-])n1C
inactive: HT-29 3.18 µM | OVCAR-8 > 10 µM | SNB-19 > 10 µM | 786-0 > 10 µM | CCRF-CEM 3.24 µM | UACC-62 3.53 µM | Malme-3M 8.02 µM | NCI-H522 4.13 µM | OVCAR-4 > 10 µM | U-251 4.26 µM | SN12C 6.7 µM | HL-60 3.37 µM | NCI-H460 3.9 µM | Hs-578T 4.21 µM

c1ccc(-n2nc3ccc4nonc4c3n2)cc1
inactive: MDA-N > 100 µM | HT-29 > 100 µM | OVCAR-8 > 100 µM | SNB-19 45.9 µM | SK-MEL-5 > 100 µM | MCF7 > 100 µM | 786-0 > 100 µM | CCRF-CEM > 100 µM | UACC-62 > 100 µM | Malme-3M > 100 µM | PC-3 > 100 µM | SK-OV-3 > 100 µM | OVCAR-4 > 100 µM | U-251 > 100 µM | SN12C > 100 µM | HL-60 > 100 µM | NCI-H460 > 100 µM | SK-MEL-28 > 100 µM

COc1ccc2c(C(=O)c3cn(CCN4CCOCC4)c4ccccc34)cccc2c1
inactive: MDA-N 37.8 µM | HT-29 53.6 µM | OVCAR-8 43 µM | SK-MEL-5 60 µM | MCF7 5.01 µM | 786-0 > 20.8 µM | CCRF-CEM 4.45 µM | UACC-62 > 29.6 µM | Malme-3M 15.8 µM | PC-3 30.8 µM | NCI-H522 6.65 µM | SK-OV-3 4.22 µM | OVCAR-4 12.6 µM | U-251 7.33 µM | SN12C > 71.4 µM | HL-60 18.3 µM | NCI-H460 4.65 µM | SK-MEL-28 > 62.4 µM

CC(=O)NC1=C(NCCC(C)C)C(=O)c2ccccc2C1=O
inactive: HT-29 > 50 µM | OVCAR-8 > 50 µM | SNB-19 > 50 µM | SK-MEL-5 > 50 µM | 786-0 > 50 µM | CCRF-CEM > 50 µM | UACC-62 > 50 µM | Malme-3M 45.9 µM | NCI-H522 > 50 µM | SK-OV-3 > 50 µM | OVCAR-4 > 50 µM | U-251 > 50 µM | SN12C > 50 µM | HL-60 > 50 µM | NCI-H460 > 50 µM | SK-MEL-28 > 50 µM

Cc1cc(-c2c(Br)cc(C(=O)O)n2C)on1
inactive: MDA-N > 100 µM | HT-29 > 100 µM | OVCAR-8 > 100 µM | SNB-19 > 100 µM | SK-MEL-5 > 100 µM | 786-0 > 100 µM | CCRF-CEM > 100 µM | UACC-62 > 100 µM | Malme-3M > 100 µM | PC-3 > 100 µM | NCI-H522 > 100 µM | SK-OV-3 > 100 µM | OVCAR-4 > 100 µM | U-251 > 100 µM | SN12C > 100 µM | HL-60 > 100 µM | NCI-H460 > 100 µM | SK-MEL-28 > 100 µM

NC(=O)c1c2c(cc3c(=O)c4ccccc4[nH]c13)CCCC2
inactive: HT-29 > 100 µM | OVCAR-8 > 97.3 µM | SNB-19 > 71.4 µM | SK-MEL-5 > 100 µM | 786-0 > 69.3 µM | CCRF-CEM > 65 µM | UACC-62 > 100 µM | Malme-3M > 73.6 µM | NCI-H522 > 100 µM | SK-OV-3 > 100 µM | OVCAR-4 > 100 µM | U-251 > 100 µM | SN12C > 100 µM | HL-60 > 100 µM | NCI-H460 > 100 µM | SK-MEL-28 > 100 µM

CN1C(=O)C(O)CC1c1cccc(F)c1 (stereo unspecified)
inactive: MDA-N > 100 µM | HT-29 > 100 µM | OVCAR-8 > 100 µM | SNB-19 > 100 µM | SK-MEL-5 > 100 µM | MCF7 > 100 µM | 786-0 > 100 µM | CCRF-CEM > 100 µM | UACC-62 > 100 µM | Malme-3M > 100 µM | PC-3 > 100 µM | NCI-H522 > 100 µM | SK-OV-3 > 100 µM | OVCAR-4 > 100 µM | U-251 > 100 µM | SN12C > 100 µM | HL-60 > 100 µM | NCI-H460 > 100 µM | SK-MEL-28 > 100 µM
